Test results: patent US12421253B2 (Mirati Therapeutics, Inc., priority 2020, dated 2025)
pIC50: −log10 of the molar value.

How the values were obtained:
PSN1 cells, pERK = experiment: Inhibition of KRas phosphorylation of ERK (Cisbio HTRF Advanced pERK assay); assay type: cell-based; conditions: Homo sapiens, PSN1, 3 h, read-out: Inhibition (HTRF IC50 nM) of KRas-mediated Phosphorylation of ERK, PSN1
Summary of the method: (§1)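 Homogeneous time-resolved fluorescence quantified phospho-ERK in lysates of cells exposed 3 h to compound (10 uM top, 3-fold serial, 0.8% DMSO).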

MKN1 cells, pERK = experiment: as above; assay type: cell-based; conditions: Homo sapiens, MKN-1, 3 h, read-out: Inhibition (HTRF IC50 nM) of KRas-mediated Phosphorylation of ERK, MKN1
Summary of the method: as §1

[1] = tested on: NCI-H727 (G12V) cells, phospho-ERK; experiment: Inhibition of KRas-mediated phosphorylation of ERK (phospho-ERK/GAPDH antibody detection, LI-COR); assay type: cell-based; conditions: Homo sapiens, 3 hours
Protocol: (§2) AsPC-1 (G12D, ATCC CRL-1682), A549 (G12S, ATCC CCL-185), HCT116 (G13D, ATCC CCL-247) cells were grown in DMEM medium supplemented with 10% fetal bovine serum and Penicillin/Streptomycin. NCI-H358 (G12C, ATCC CRL-5807), NCI-H460 (Q61H, ATCC HTB-117), NCI-H727 (G12V, ATCC CRL-5815), MKN1 (WTdep, JCRB JCRB0252), PSN-1 (G12R, ATCC CRM-CRL-3211) cells were grown in RPMI medium supplemented with 10% fetal bovine serum, 10 mM HEPES, 10 mM Sodium Pyruvate, and Penicillin/Streptomycin. Cells were plated in black well clear bottom tissue culture treated 96 well plates (Corning, 3904) at a density of 20,000 cells/well and allowed to attach for 12-14 hours. Diluted compounds were then added in a final concentration of 0.5% DMSO. After 3 hours, 50 μL of 4.0% formaldehyde was added and the plates incubated at room temperature for 20 minutes. The plates were then dumped and permeabilized with 150 μL of ice cold 100% methanol for 10 minutes. Non-specific antibody binding to the plates was blocked using 100 μL Odyssey blocking buffer (LI-COR Biosciences, 927-60010) for 1 hour at room temperature.
(§3) The amount of phospho-ERK was determined using an antibody specific for the phosphorylated form of ERK and compared to the amount of GAPDH. Primary antibodies used for the detection were added as follows: Phospho-ERK (Cell Signaling CS-9101) diluted 1:500 and GAPDH (Millipore MAB374) diluted 1:5000 in Odyssey blocking buffer+0.05% Tween 20. The plates were incubated overnight at 4 C. The plates were washed 3× with 150 uL PBS+0.1% Tween 20.
(§4) Secondary antibodies used to visualize primary antibodies were added as follows: Goat Anti-Rabbit-800 (LI-COR, 926-32211) and Goat Anti-Mouse-680 (LI-COR, 926-68070) diluted 1:800 both in Odyssey blocking buffer+0.05% Tween 20 and were incubated for 1 hour at room temperature. The plates were washed 3× with 150 uL PBS+[…]. Plates were imaged dry on a Li—COR Odyssey CLX plate reader.
(§5) The phospho-ERK (Thr202/Tyr204) signal was normalized to the GAPDH signal for each well and percent of DMSO control values were calculated. IC50 values were generated using a 4-parameter fit of the dose response curve.

[2] = tested on: NCI-H460 (Q61H) cells, phospho-ERK; experiment: as above; assay type: cell-based; conditions: Homo sapiens, 3 hours
Protocol: as §2, §3, §4, §5

[3] = tested on: AsPC-1 (G12D) cells, phospho-ERK; experiment: as above; assay type: cell-based; conditions: Homo sapiens, ASPC1, 3 hours
Protocol: as §2, §3, §4, §5

KRas^G12D = molecular target: T1, KRas^G12D (Homo sapiens, UniProt P01116, G12D); experiment: KRas binding assay (TR-FRET displacement of Cy5 labelled tracer)
T1 construct: […]; biotin (biotinylated); purchased Accelegan Inc
T1 sequence (P01116 1-169 isoform P01116-2 G12D): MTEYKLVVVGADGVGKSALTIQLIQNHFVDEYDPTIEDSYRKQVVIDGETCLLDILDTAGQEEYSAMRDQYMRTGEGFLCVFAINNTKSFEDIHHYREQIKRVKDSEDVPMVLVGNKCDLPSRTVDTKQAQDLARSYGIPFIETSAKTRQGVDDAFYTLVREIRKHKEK
Protocol: (§6) The ability of a compound to bind to KRas was measured using a TR-FRET displacement assay. […] After a 60-minute incubation at room temperature, the reaction was measured using a BMG LABTECH CLARIO star Plus via TR-FRET. […] The POC values were fit to a 4-parameter IC50 equation and the IC50 value reported.

KRas^G12R = molecular target: T2, KRas^G12R (Homo sapiens, UniProt P01116, G12R); experiment: as above
T2 construct: […]; biotin (biotinylated); purchased Accelegan Inc
T2 sequence (P01116 1-169 isoform P01116-2 G12R): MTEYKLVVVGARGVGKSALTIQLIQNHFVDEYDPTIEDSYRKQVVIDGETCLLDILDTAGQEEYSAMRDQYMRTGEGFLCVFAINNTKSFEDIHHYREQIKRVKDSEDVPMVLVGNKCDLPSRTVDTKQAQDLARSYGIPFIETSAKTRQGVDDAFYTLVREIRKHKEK
Protocol: as §6

KRas^G12V = molecular target: T3, KRas^G12V (Homo sapiens, UniProt P01116, G12V); experiment: as above
T3 construct: […]; biotin (biotinylated); purchased Accelegan Inc
T3 sequence (P01116 1-169 isoform P01116-2 G12V): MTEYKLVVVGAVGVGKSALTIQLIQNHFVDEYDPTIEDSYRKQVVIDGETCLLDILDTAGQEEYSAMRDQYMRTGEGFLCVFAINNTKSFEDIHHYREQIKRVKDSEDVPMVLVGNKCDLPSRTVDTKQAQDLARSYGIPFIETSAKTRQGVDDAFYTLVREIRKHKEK
Protocol: as §6

KRas^Q61H = KRas^Q61H (Homo sapiens, UniProt P01116, Q61H); experiment: biochemical
Chain of KRas^Q61H (P01116 1-169 isoform P01116-2 Q61H): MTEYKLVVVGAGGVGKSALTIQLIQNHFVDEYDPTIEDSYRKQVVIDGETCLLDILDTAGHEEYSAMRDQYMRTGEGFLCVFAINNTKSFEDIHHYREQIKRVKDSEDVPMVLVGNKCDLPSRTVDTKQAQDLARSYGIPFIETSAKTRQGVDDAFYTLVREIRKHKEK
Protocol: as §6

KRas^G12C = KRas^G12C (Homo sapiens, UniProt P01116, G12C); experiment: biochemical
Chain of KRas^G12C (P01116 1-169 isoform P01116-2 G12C): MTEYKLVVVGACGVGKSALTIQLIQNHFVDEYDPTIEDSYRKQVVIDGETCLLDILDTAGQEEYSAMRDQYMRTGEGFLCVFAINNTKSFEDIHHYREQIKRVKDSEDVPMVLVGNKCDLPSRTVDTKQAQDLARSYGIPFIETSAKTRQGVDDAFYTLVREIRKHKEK
Protocol: as §6

KRas^G13D = KRas^G13D (Homo sapiens, UniProt P01116, G13D); experiment: biochemical
Chain of KRas^G13D (P01116 1-169 isoform P01116-2 G13D): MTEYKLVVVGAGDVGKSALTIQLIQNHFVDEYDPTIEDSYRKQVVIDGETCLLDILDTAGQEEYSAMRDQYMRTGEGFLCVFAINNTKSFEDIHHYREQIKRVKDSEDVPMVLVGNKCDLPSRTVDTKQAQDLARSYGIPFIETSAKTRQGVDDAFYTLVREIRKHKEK
Protocol: as §6

KRas^G12A = molecular target: T4, KRas^G12A (Homo sapiens, UniProt P01116, G12A); experiment: KRas binding assay (TR-FRET displacement of Cy5 labelled tracer)
T4 construct: […]; biotin (biotinylated); purchased Accelegan Inc
T4 sequence (P01116 1-169 isoform P01116-2 G12A): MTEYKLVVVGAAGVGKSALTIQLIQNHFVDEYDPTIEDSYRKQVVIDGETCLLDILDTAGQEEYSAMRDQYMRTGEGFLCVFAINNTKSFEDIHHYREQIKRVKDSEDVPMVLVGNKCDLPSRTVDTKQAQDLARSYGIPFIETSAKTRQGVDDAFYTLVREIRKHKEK
Protocol: as §6

KRas^WT = molecular target: T5, KRas^WT (Homo sapiens, UniProt P01116); experiment: as above
T5 construct: […]; biotin (biotinylated); purchased Accelegan Inc
T5 sequence (P01116 1-169 isoform P01116-2): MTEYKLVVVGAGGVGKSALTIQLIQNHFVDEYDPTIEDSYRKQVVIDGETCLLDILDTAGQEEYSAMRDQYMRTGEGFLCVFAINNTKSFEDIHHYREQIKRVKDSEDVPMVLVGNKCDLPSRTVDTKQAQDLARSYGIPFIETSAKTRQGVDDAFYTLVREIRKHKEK
Protocol: as §6

KRas^G12S = molecular target: T6, KRas^G12S (Homo sapiens, UniProt P01116, G12S); experiment: as above
T6 construct: […]; biotin (biotinylated); purchased Accelegan Inc
T6 sequence (P01116 1-169 isoform P01116-2 G12S): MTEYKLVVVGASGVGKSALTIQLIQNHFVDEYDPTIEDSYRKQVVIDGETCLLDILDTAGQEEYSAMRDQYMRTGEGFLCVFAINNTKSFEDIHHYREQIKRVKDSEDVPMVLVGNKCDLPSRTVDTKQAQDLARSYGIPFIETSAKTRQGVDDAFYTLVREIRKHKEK
Protocol: as §6

Row | Compound | IC50 (PSN1 cells, pERK) [nM] | IC50 (MKN1 cells, pERK) [nM] | IC50 [1] [nM] | IC50 [2] [nM] | IC50 [3] [nM] | pIC50 (KRas^G12D) | pIC50 (KRas^G12R) | pIC50 (KRas^G12V) | pIC50 (KRas^Q61H) | pIC50 (KRas^G12C) | pIC50 (KRas^G13D) | pIC50 (KRas^G12A) | pIC50 (KRas^WT) | pIC50 (KRas^G12S)
1 | CCc1c(F)ccc2cc(O)cc(N3CCc4c(nc(OC[C@@]56CCCN5C[C@H](F)C6)nc4N4CCCC(n5cccn5)C4)C3)c12 (stereo partly drawn) [Example 67, 4-(4-(3-(1H-pyrazol-1-yl)piperidin-1-yl)-2-(((2R,7aS)-2-fluorohexahydro-1H-pyrrolizin-7a-yl)methoxy)-5,6-dihydropyrido[3,4-d]pyrimidin-7(8H)-yl)-5-ethyl-6-fluoronaphthalen-2-ol] | ≥ 10000 | 112 | 876 | 225 | 1570 | 7.96 | ≥ 8.70 | 8.15 |  |  |  |  |  | 
2 | CCc1c(F)ccc2cc(O)cc(N3CCc4c(nc(OC[C@@]56CCCN5C[C@H](F)C6)nc4N4CCC(c5[nH]ncc5N)C4)C3)c12 (stereo partly drawn) [Example 26, 4-(4-(3-(4-amino-1H-pyrazol-5-yl)pyrrolidin-1-yl)-2-(((2R,7aS)-2-fluorohexahydro-1H-pyrrolizin-7a-yl)methoxy)-5,6-dihydropyrido[3,4-d]pyrimidin-7(8H)-yl)-5-ethyl-6-fluoronaphthalen-2-ol] |  |  | 3120 | 3260 | 10000 | 6.96 | 8.30 | 8.40 | 7.66 | 8.15 | 7.47 | 8.15 | 7.62 | 8.00
3 | CCc1c(F)ccc2cc(O)cc(N3CCc4c(nc(OC[C@@]56CCCN5C[C@H](F)C6)nc4N4CCCC(O)(C(F)F)C4)C3)c12 (stereo partly drawn) [Example 32, 3-(difluoromethyl)-1-(7-(8-ethyl-7-fluoro-3-hydroxynaphthalen-1-yl)-2-(((2R,7aS)-2-fluorohexahydro-1H-pyrrolizin-7a-yl)methoxy)-5,6,7,8-tetrahydropyrido[3,4-d]pyrimidin-4-yl)piperidin-3-ol] | 1540 | 31 | 1090 | 381 | 624 | ≥ 8.70 | 8.52 | ≥ 8.70 |  |  |  |  |  | 
4 | CCc1c(F)ccc2cc(O)cc(N3CCc4c(nc(OC[C@@]56CCCN5C[C@H](F)C6)nc4NCc4ccc5nncn5c4)C3)c12 [Example 31, 4-(4-(([1,2,4]triazolo[4,3-a]pyridin-6-ylmethyl)amino)-2-(((2R,7aS)-2-fluorohexahydro-1H-pyrrolizin-7a-yl)methoxy)-5,6-dihydropyrido[3,4-d]pyrimidin-7(8H)-yl)-5-ethyl-6-fluoronaphthalen-2-ol] | ≥ 10000 | 637 | 3320 | > 10000 | 3540 | 7.51 | ≥ 8.70 | ≥ 8.70 |  |  |  |  |  | 
5 | CCc1c(F)ccc2cc(O)cc(N3CCc4c(nc(OC[C@@]56CCCN5C[C@H](F)C6)nc4N4CCCCCC(S(C)(=O)=O)C4)C3)c12 (stereo partly drawn) [Example 36, 5-ethyl-6-fluoro-4-(2-(((2R,7aS)-2-fluorotetrahydro-1H-pyrrolizin-7a(5H)-yl)methoxy)-4-(3-(methylsulfonyl)azocan-1-yl)-5,8-dihydropyrido[3,4-d]pyrimidin-7(6H)-yl)naphthalen-2-ol] | ≥ 10000 | 37 | 1730 | 731 | 1760 | 8.30 | 8.30 | ≥ 8.70 |  |  |  |  |  | 
6 | CCc1c(F)ccc2cc(O)cc(N3CCc4c(nc(OC[C@@]56CCCN5C[C@H](F)C6)nc4N4CCCC(O)C4)C3)c12 (stereo partly drawn) [Example 27, 1-(7-(8-ethyl-7-fluoro-3-hydroxynaphthalen-1-yl)-2-(((2R,7aS)-2-fluorohexahydro-1H-pyrrolizin-7a-yl)methoxy)-5,6,7,8-tetrahydropyrido[3,4-d]pyrimidin-4-yl)piperidin-3-ol] | 2720 | 9 | 549 | 282 | 808 | ≥ 8.70 | ≥ 8.70 | ≥ 8.70 |  |  |  |  |  | 
7 | CCc1c(F)ccc2cc(O)cc(N3CCc4c(nc(OC[C@@]56CCCN5C[C@H](F)C6)nc4N4CCCC5(CC(=O)N5)C4)C3)c12 (stereo partly drawn) [Example 21, 6-(7-(8-ethyl-7-fluoro-3-hydroxynaphthalen-1-yl)-2-(((2R,7aS)-2-fluorohexahydro-1H-pyrrolizin-7a-yl)methoxy)-5,6,7,8-tetrahydropyrido[3,4-d]pyrimidin-4-yl)-1,6-diazaspiro[3.5]nonan-2-one] | 646 | 9 | 466 | 202 | 204 | ≥ 8.70 | ≥ 8.70 | ≥ 8.70 |  |  |  |  |  | 
8 | CCc1c(F)ccc2cc(O)cc(N3CCc4c(nc(OC[C@@]56CCCN5C[C@H](F)C6)nc4N4CCCn5nc(N)cc5C4)C3)c12 [Example 18, 4-(4-(2-amino-7,8-dihydro-4H-pyrazolo[1,5-a][1,4]diazepin-5(6H)-yl)-2-(((2R,7aS)-2-fluorohexahydro-1H-pyrrolizin-7a-yl)methoxy)-5,6-dihydropyrido[3,4-d]pyrimidin-7(8H)-yl)-5-ethyl-6-fluoronaphthalen-2-ol] | ≥ 10000 | 22 | 503 | 317 | 182 | ≥ 8.70 | ≥ 8.70 | ≥ 8.70 |  |  |  |  |  | 
9 | CCc1c(F)ccc2cc(O)cc(N3CCc4c(nc(OC[C@@]56CCCN5C[C@H](F)C6)nc4N4CCCCC(S(C)(=O)=O)C4)C3)c12 (stereo partly drawn) [Example 28, 5-ethyl-6-fluoro-4-(2-(((2R,7aS)-2-fluorohexahydro-1H-pyrrolizin-7a-yl)methoxy)-4-(3-(methylsulfonyl)azepan-1-yl)-5,6-dihydropyrido[3,4-d]pyrimidin-7(8H)-yl)naphthalen-2-ol] | ≥ 10000 | 36 | 987 | 494 | 1010 | ≥ 8.70 | ≥ 8.70 | ≥ 8.70 |  |  |  |  |  | 
10 | CCc1c(F)ccc2cc(O)cc(N3CCc4c(nc(OC[C@@]56CCCN5C[C@H](F)C6)nc4N4CC5CC(O)CC4C5)C3)c12 (stereo partly drawn) [Example 35, 6-(7-(8-ethyl-7-fluoro-3-hydroxynaphthalen-1-yl)-2-(((2R,7aS)-2-fluorohexahydro-1H-pyrrolizin-7a-yl)methoxy)-5,6,7,8-tetrahydropyrido[3,4-d]pyrimidin-4-yl)-6-azabicyclo[3.2.1]octan-3-ol] | 5720 | 159 | 1620 | 1430 | 2360 | 8.15 | ≥ 8.70 | 7.28 |  |  |  |  |  | 
